This is an account of results in paper PMC10830684, “Effect of Oregon grape root extracts on P-glycoprotein mediated transport in in vitro cell lines” (Journal of Pharmacy & Pharmaceutical Sciences, 2024).

One series relates to Caco-2 cells. Put plainly: MTT cytotoxicity assay in Caco-2 cells. The class given is cell-based, human. The following applies: for MTT assay: 4 hours exposure. From the text:
(§1) We initiated cytotoxicity experiments with the Caco-2, MDCKII-MDR1 and MDCKII-wild type cells on Day 7 (Caco-2) and Day 4 (MDCKII-MDR1 and MDCKII-wild type) after the initial plating of the cells at 2.5 × 10^3 cells/well in 48-well plates (Becton Dickinson, Franklin Lakes, NJ, USA). See details of preparation for the cytotoxicity experiments in Supplementary Material.
We initiated cytotoxicity experiments with the Caco-2, MDCKII-MDR1 and MDCKII-wild type cells on Day 7 (Caco-2) and Day 4 (MDCKII-MDR1 and MDCKII-wild type) after the initial plating of the cells at 2.5x10^3 cells/well in 48-well plates (Becton Dickinson, Franklin Lakes, NJ, USA). Stock solutions of 10 mM berberine or berbamine were prepared by dissolving the compounds in DMSO (berberine) or distilled water (berbamine).
(§2) The LDH enzymatic activities were assayed using the method of Mitchell et al.(1). […] Enzyme leakage into the medium was expressed as the percentage of total cellular LDH. The MTT (3-(4,5-dimethythiazole-2yl)-2,5-diphenyl tetrazolium bromide) reduction assay was done according to Mosmann (2). This assay was conducted immediately with the same cells used in the LDH study. The results were expressed as the percentage of negative controls.
On the technique in general: Tetrazolium assays rely on reduction of a dye to a coloured formazan, in cell work by metabolically active cells.

The test system of a further series is MDCKII-MDR1 cells. Put plainly: MTT cytotoxicity assay in MDCKII-MDR1 cells. The following applies: 4 hours exposure. The class given is cell-based, Canine.
Description: as §1
(§3) We initiated cytotoxicity experiments with the Caco-2, MDCKII-MDR1 and MDCKII-wild type cells on Day 7 (Caco-2) and Day 4 (MDCKII-MDR1 and MDCKII-wild type) after the initial plating of the cells at 2.5x10^3 cells/well in 48-well plates (Becton Dickinson, Franklin Lakes, NJ, USA). Stock solutions of 10 mM berberine or berbamine were prepared by dissolving the compounds in DMSO (berberine) or distilled water (berbamine). […] The final concentration of DMSO was 0.003% (v/v), 0.03% (v/v), 0.3% (v/v), 1% (v/v), 1.5% (v/v), and 3% (v/v) DMSO/culture medium for 0.3 μM, 3 μM, 30 μM, 100 μM, ,150 μM, and 300 μM, respectively. The final concentration of ethanol was 0.15% (v/v) ethanol/culture medium. Ketoconazole (75 µM) was used as a positive control and no treatment (medium alone) was used as a negative control for each experiment.
as §2

The test system of another series is MDCKII wild-type cells. Kind of series: MTT cytotoxicity assay in MDCKII wild-type cells. The class given is cell-based, Canine. The settings on record: MDCKII-WT cells, 4 hours exposure.
Description: as §1, §3, §2

The subject of another series is P-gp. More on the design: method as in PMID 12434406. The settings on record: Caco-2 cells; seven day pretreatment; 30 µM; cited from earlier work.

Each structure is given as a SMILES string.

As for `COc1ccc2cc3[n+](cc2c1OC)CCc1cc2c(cc1-3)OCO2.[Cl-]` [Berberine, Berberine chloride], the MTT assay result in the series on Caco-2 cells (0.03 µM) was “□ (%MTT reduction is not significantly decreased compared with the negative control)”; in the series on Caco-2 cells (3.0 µM) it was “□ (%MTT reduction is not significantly decreased compared with the negative control)”; in the series with Caco-2 cells (100 µM), “□ (%MTT reduction is not significantly decreased compared with the negative control)”; in the series on Caco-2 cells (150 µM), 76.37 ± 2.13%; with Caco-2 cells (300 µM), 58.25 ± 6.37%; in the series with Caco-2 cells (300 µM, listed as berberine), 58.25 ± 9.24%. The MTT assay result with MDCKII-MDR1 cells (0.03 µM), in the series on MDCKII-MDR1 cells (3.0 µM), in the series with MDCKII-MDR1 cells (100 µM), in the series with MDCKII-MDR1 cells (150 µM), with MDCKII-MDR1 cells (300 µM) and with MDCKII wild-type cells (0.03 µM) was “□ (%MTT reduction is not significantly decreased compared with the negative control)” throughout. Further, the MTT assay result with MDCKII wild-type cells (3.0 µM) is “□ (%MTT reduction is not significantly decreased compared with the negative control)”; in the series with MDCKII wild-type cells (100 µM), “□ (%MTT reduction is not significantly decreased compared with the negative control)”; with MDCKII wild-type cells (150 µM), “□ (%MTT reduction is not significantly decreased compared with the negative control)”; in the series on MDCKII wild-type cells (300 µM) it was 24.82 ± 15.91%. The “earliest time of significant increase in LDH leakage and decrease in MTT reduction” value in the series on Caco-2 cells (150 µM, time-response 2, 4, 6, 8 hr, data not shown) amounted to 4 h. For the same compound, the “increase of the efflux of daunomycin” value in the series on P-gp was 1.4 fold.
